Measurements published in patent publication US20260285850A1, “SUBSTITUTED OXAZOLIDINONES AND IMIDAZOLINONES AS HERBICIDES” (FMC CORPORATION, priority 2023, published 2026).

Legend:
Format in all cases: in vivo
[1] = test system: barnyardgrass (Echinochloa crus-galli); test: Test A postemergence application, visual injury rating 0-100; details: 10 days
Method in brief: (§1)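 Compounds formulated in a non-phytotoxic solvent with surfactant are sprayed onto soil of freshly planted loam-sand pots ahead of emergence, or onto emerged plants 2-10 cm tall. After a 10-day greenhouse period, each species is scored visually for injury against untreated controls.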

[2] = test system: oat, wild (wild oat, Avena fatua); test: as above; details: 10 days
Method in brief: as §1

[3] = test system: wheat (Triticum aestivum); test: as above; details: 10 days
Method in brief: as §1

[4] = test system: palmer (palmer amaranth, palmer pigweed, Amaranthus palmeri); test: as above; details: 10 days
Method in brief: as §1

[5] = test system: blackgrass (Alopecurus myosuroides); test: as above; details: 10 days
Method in brief: as §1

[6] = test system: ryegrass, Italian (italian ryegrass, Lolium multiflorum); test: as above; details: 10 days
Method in brief: as §1

[7] = test system: galium (catchweed bedstraw, Galium aparine); test: as above; details: 10 days
Method in brief: as §1

soybean (Glycine max) [8] = test: as above; details: 10 days
Method in brief: as §1

[9] = test system: ragweed (common ragweed, Ambrosia artemisiifolia); test: as above; details: 10 days
Method in brief: as §1

corn (Zea mays) [10] = test: as above; details: 10 days
Method in brief: as §1

kochia (Bassia scoparia) [11] = test: as above; details: 10 days
Method in brief: as §1

[12] = test system: horseweed (Erigeron canadensis); test: as above; details: 10 days
Method in brief: as §1

rice (Oryza sativa) = test: Test B flooded paddy test, visual plant response rating 0-100; details: 250 g ai/ha, Flood, applied to paddy water, evaluated after 13 days
Method in brief: (§2)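 Visual scores versus untreated controls were recorded 13 days after treatment of greenhouse-held plants. At the 2-leaf stage, pots were flooded 3 cm above the soil surface and compounds added straight to the water.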

[13] = test system: barnyardgrass (Echinochloa crusgalli); test: as above; details: 250 g ai/ha, Flood, applied to paddy water, evaluated after 13 days
Method in brief: as §2

[14] = test system: ducksalad (Heteranthera limosa); test: as above; details: 250 g ai/ha, Flood, applied to paddy water, evaluated after 13 days
Method in brief: as §2

[15] = test system: sedge, umbrella (small-flower umbrella sedge, Cyperus difformis); test: as above; details: 250 g ai/ha, Flood, applied to paddy water, evaluated after 13 days
Method in brief: as §2

[16] = test system: barnyardgrass (Echinochloa crus-galli); test: Test A preemergence soil spray, visual injury rating 0-100; details: 10 days, 0 = no effect, 100 = complete control
Method in brief: as §1

[17] = test system: oat, wild (wild oat, Avena fatua); test: as above; details: 10 days, 0 = no effect, 100 = complete control
Method in brief: as §1

[18] = test system: wheat (Triticum aestivum); test: as above; details: 10 days, 0 = no effect, 100 = complete control
Method in brief: as §1

[19] = test system: palmer (palmer amaranth, palmer pigweed, Amaranthus palmeri); test: as above; details: 10 days, 0 = no effect, 100 = complete control
Method in brief: as §1

[20] = test system: blackgrass (Alopecurus myosuroides); test: as above; details: 10 days, 0 = no effect, 100 = complete control
Method in brief: as §1

[21] = test system: ryegrass, Italian (italian ryegrass, Lolium multiflorum); test: as above; details: 10 days, 0 = no effect, 100 = complete control
Method in brief: as §1

soybean (Glycine max) [22] = test: as above; details: 10 days, 0 = no effect, 100 = complete control
Method in brief: as §1

[23] = test system: ragweed (common ragweed, Ambrosia artemisiifolia); test: as above; details: 10 days, 0 = no effect, 100 = complete control
Method in brief: as §1

corn (Zea mays) [24] = test: as above; details: 10 days, 0 = no effect, 100 = complete control
Method in brief: as §1

kochia (Bassia scoparia) [25] = test: as above; details: 10 days, 0 = no effect, 100 = complete control
Method in brief: as §1

[26] = 31 g ai/ha, postemergence, 0 = no effect, 100 = complete control
[27] = Postemergence, 125 g ai/ha, 0 is no effect, 100 is complete control

CCOC(=O)C1=CCC(NC(=O)C2(C)CN(c3cc(Cl)cc(Cl)c3)C(=O)O2)C1 (stereo not drawn) [Compound 60]
Barnyardgrass plant response rating (0-100) [1, 26]: 90
Barnyardgrass plant response rating (0 to 100 scale) [1, 27]: 90
Oat, Wild plant response rating (0-100) [2, 26]: 10
Oat, Wild plant response rating (0 to 100 scale) [2, 27]: 90
Wheat plant response rating (0-100) [3, 26]: 40
Wheat plant response rating (0 to 100 scale) [3, 27]: 90
Amaranth, Palmer plant response rating (0-100) [4, 26]: 90
Amaranth, Palmer / Pigweed, Palmer plant response rating (0 to 100 scale) [4, 27]: 100
Blackgrass plant response rating (0-100) [5, 26]: 90
Blackgrass plant response rating (0 to 100 scale) [5, 27]: 100
Ryegrass, Italian plant response rating (0-100) [6, 26]: 90
Ryegrass, Italian plant response rating (0 to 100 scale) [6, 27]: 100
Galium plant response rating (0-100) [7, 26]: 90
Galium plant response rating (0 to 100 scale) [7, 27]: 90
Soybean plant response rating (0-100) (soybean (Glycine max) [8]; [26]): 90
Soybean plant response rating (0 to 100 scale) (soybean (Glycine max) [8]; [27]): 100
Ragweed plant response rating (0-100) [9, 26]: 0
Ragweed plant response rating (0 to 100 scale) [9, 27]: 20
Corn plant response rating (0-100) (corn (Zea mays) [10]; [26]): 90
Corn plant response rating (0 to 100 scale) (corn (Zea mays) [10]; [27]): 100
Kochia plant response rating (0-100) (kochia (Bassia scoparia) [11]; [26]): 80
Kochia plant response rating (0 to 100 scale) (kochia (Bassia scoparia) [11]; [27]): 80
Horseweed plant response rating (0-100) [12, 26]: 70
Horseweed plant response rating (0 to 100 scale) [12, 27]: 90
Plant response rating, Rice (0 to 100 scale, 0 is no effect and 100 is complete control) (rice (Oryza sativa)): 65
Plant response rating, Barnyardgrass (0 to 100 scale, 0 is no effect and 100 is complete control) [13]: 70
Plant response rating, Ducksalad (0 to 100 scale, 0 is no effect and 100 is complete control) [14]: 95
Plant response rating, Sedge, Umbrella (0 to 100 scale, 0 is no effect and 100 is complete control) [15]: 100
Barnyardgrass plant response rating (0-100) ([16]; 31 g ai/ha): 60
Barnyardgrass plant response rating (0 to 100 scale) ([16]; 125 g ai/ha): 100
Oat, Wild plant response rating (0-100) ([17]; 31 g ai/ha): 0
Oat, Wild plant response rating (0 to 100 scale) ([17]; 125 g ai/ha): 20
Wheat plant response rating (0-100) ([18]; 31 g ai/ha): 20
Wheat plant response rating (0 to 100 scale) ([18]; 125 g ai/ha): 80
Amaranth, Palmer plant response rating (0-100) ([19]; 31 g ai/ha): 100
Amaranth, Palmer plant response rating (0 to 100 scale) ([19]; 125 g ai/ha): 100
Blackgrass plant response rating (0-100) ([20]; 31 g ai/ha): 0
Blackgrass plant response rating (0 to 100 scale) ([20]; 125 g ai/ha): 50
Ryegrass, Italian plant response rating (0-100) ([21]; 31 g ai/ha): 60
Ryegrass, Italian plant response rating (0 to 100 scale) ([21]; 125 g ai/ha): 90
Soybean plant response rating (0-100) (soybean (Glycine max) [22]; 31 g ai/ha): 10
Soybean plant response rating (0 to 100 scale) (soybean (Glycine max) [22]; 125 g ai/ha): 40
Ragweed plant response rating (0-100) ([23]; 31 g ai/ha): 30
Ragweed plant response rating (0 to 100 scale) ([23]; 125 g ai/ha): 60
Corn plant response rating (0-100) (corn (Zea mays) [24]; 31 g ai/ha): 0
Corn plant response rating (0 to 100 scale) (corn (Zea mays) [24]; 125 g ai/ha): 60
Kochia plant response rating (0-100) (kochia (Bassia scoparia) [25]; 31 g ai/ha): 40
Kochia plant response rating (0 to 100 scale) (kochia (Bassia scoparia) [25]; 125 g ai/ha): 90
